Columns and labels:
HL-60 cells = experiment: HL-60 cell differentiation (nitro blue tetrazolium reduction); assay type: cell-based, human; conditions: for EC50: HL-60 cells into monocytes, FIG. 2
Procedure: The study drugs were dissolved in ethanol and the concentrations determined using UV spectrophotometry. Serial dilutions were prepared so that a range of drug concentrations could be tested without changing the final concentration of ethanol (≦0.2%) present in the cell cultures.
Human promyelocytic leukemia (HL60) cells were grown in RPMI-1640 medium containing 10% fetal bovine serum. The cells were incubated at 37° C. in the presence of 5% CO2.
HL60 cells were plated at 1.2×10^5 cells/ml. Eighteen hours after plating, cells in duplicate were treated with drug. Four days later, the cells were harvested and a nitro blue tetrazolium reduction assay was performed (Collins et al., 1979; J. Exp. Med. 149:969-974). The percentage of differentiated cells was determined by counting a total of 200 cells and recording the number that contained intracellular black-blue formazan deposits. Verification of differentiation to monocytic cells was determined by measuring phagocytic activity (data not shown).

[1] = system: 24-hydroxylase (24Ohase) gene promoter in ROS 17/2.8 (bone) cells; experiment: In vitro transcription assay (24-hydroxylase gene promoter, luciferase reporter); assay type: cell-based; conditions: ROS 17/2.8 cells, 24-hydroxylase promoter-luciferase; FIG. 3; read-out: EC50, transcriptional activity in bone cells
Procedure: Transcription activity was measured in ROS 17/2.8 (bone) cells that were stably transfected with a 24-hydroxylase (24Ohase) gene promoter upstream of a luciferase reporter gene (Arbour et al., 1998). Cells were given a range of doses. Sixteen hours after dosing the cells were harvested and luciferase activities were measured using a luminometer.
RLU=relative luciferase units.

[2] = system: bone calcium mobilization; experiment: Bone calcium mobilization (serum calcium) in vitamin D-deficient rats; assay type: in vivo, rat; conditions: FIG. 4; for mobilization of bone calcium (serum calcium): ip, 4 consecutive days, rats on 0.02% Ca diet
Procedure: (§1) Male, weanling Sprague-Dawley rats were placed on Diet 11 (0.47% Ca) diet+AEK oil for one week followed by Diet 11 (0.02% Ca)+AEK oil for 3 weeks. The rats were then switched to a diet containing 0.47% Ca for one week followed by two weeks on a diet containing 0.02% Ca. Dose administration began during the last week on 0.02% calcium diet. Four consecutive ip doses were given approximately 24 hours apart. Twenty-four hours after the last dose, blood was collected from the severed neck and the concentration of serum calcium determined as a measure of bone calcium mobilization. The first 10 cm of the intestine was also collected for intestinal calcium transport analysis using the everted gut sac method.

[3] = system: intestinal calcium transport; experiment: Intestinal calcium transport (everted gut sac method) in vitamin D-deficient rats; assay type: in vivo, rat; conditions: FIG. 5; for intestinal calcium transport: 260 pmol/day, ip, 4 consecutive days, everted gut sac
Procedure: as §1

[4] = target: T1, full-length recombinant rat vitamin D receptor (Rattus norvegicus, UniProt P13053); experiment: Vitamin D receptor competitive binding with [3H]-1,25(OH)2D3; conditions: FIG. 1
T1 construct: Full-length recombinant rat receptor was expressed in E. coli; histidine tag (C); made in house; host or cells: E. coli BL21 (DE3) Codon Plus RIL
T1 sequence (P13053 1-423): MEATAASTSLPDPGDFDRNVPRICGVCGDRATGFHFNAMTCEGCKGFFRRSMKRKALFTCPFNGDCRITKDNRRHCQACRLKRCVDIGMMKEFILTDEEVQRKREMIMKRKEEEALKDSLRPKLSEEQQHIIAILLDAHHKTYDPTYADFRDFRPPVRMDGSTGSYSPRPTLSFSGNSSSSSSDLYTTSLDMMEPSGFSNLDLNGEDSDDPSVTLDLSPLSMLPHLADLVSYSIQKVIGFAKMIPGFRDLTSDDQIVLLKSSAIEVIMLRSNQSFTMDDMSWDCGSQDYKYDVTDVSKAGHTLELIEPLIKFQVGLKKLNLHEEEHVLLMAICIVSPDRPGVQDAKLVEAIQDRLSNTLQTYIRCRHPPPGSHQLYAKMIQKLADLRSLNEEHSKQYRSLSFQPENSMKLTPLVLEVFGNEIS
Procedure: Full-length recombinant rat receptor was expressed in E. coli BL21 (DE3) Codon Plus RIL cells and purified to homogeneity using two different column chromatography systems. The first system was a nickel affinity resin that utilizes the C-terminal histidine tag on this protein. The protein that was eluted from this resin was further purified using ion exchange chromatography (S-Sepharose Fast Flow). Aliquots of the purified protein were quick frozen in liquid nitrogen and stored at −80° C. until use. For use in binding assays, the protein was diluted in TEDK50 (50 mM Tris, 1.5 mM EDTA, pH7.4, 5 mM DTT, 150 mM KCl) with 0.1% Chaps detergent. The receptor protein and ligand concentration were optimized such that no more than 20% of the added radiolabeled ligand was bound to the receptor.
Radiolabeled and unlabeled ligands were added to 100 mcl of the diluted protein at a final ethanol concentration of ≦10%, mixed and incubated overnight on ice to reach binding equilibrium. The following day, 100 mcl of hydroxylapatite slurry (50%) was added to each tube and mixed at 10-minute intervals for 30 minutes. The hydroxylapaptite was collected by centrifugation and then washed three times with Tris-EDTA buffer (50 mM Tris, 1.5 mM EDTA, pH 7.4) containing 0.5% Titron X-100. […] Total binding was determined from the tubes containing only radiolabeled ligand.

Row | Ki ([4]; full-length recombinant rat VDR, read-out: Ki, competition with [3H]-1,25(OH)2D3 for binding to the vitamin D receptor) | VDR binding affinity compared to 1,25(OH)2D3 ([4]; in words) | EC50 (HL-60 cells; Homo sapiens) | Compound | EC50 (HL-60 cells) | EC50 [1] | mobilization of bone calcium (serum calcium) ([2]; 260 pmol/day) | intestinal calcium transport [3] | potency on HL-60 cell differentiation relative to 1,25(OH)2D3 (HL-60 cells; compared to 1,25(OH)2D3) | mobilization of bone calcium (serum calcium) ([2]; 2340 pmol/day) | bone calcium mobilization activity compared to 1,25(OH)2D3 ([2]; in words) | intestinal calcium transport activity compared to 1,25(OH)2D3 ([3]; in words)
1 | – | – | – | C=C1/C(=C\C=C2/CCC[C@]3(C)[C@@H]([C@H](C)CCCC(C)(C)O)CC[C@@H]23)C[C@@H](O)C[C@@H]1O [1,25(OH)2D3, 1α,25-dihydroxyvitamin D3, reference compound] | 2 nM | 0.3 nM | increased serum calcium levels | significant increase | – | – | – | –
2 | 0.1 nM | same affinity | 0.7 nM | C=C1[C@H](O)CC(=C/C=C2\CCC[C@]3(C)[C@@H](C(=C)CCCC(C)(C)O)CC[C@@H]23)C[C@H]1O [Vit III 20-21, 2-methylene-20(21)-dehydro-19-nor-1α,25-dihydroxyvitamin D3] | – | 2 nM | did not result in mobilization of bone calcium | promotes intestinal calcium transport | 3 to 4 times | substantial effect | less bone calcium mobilization activity | about the same activity
